Measured values: PubChem BioAssay AID2060360 (Molecular Pharmacology Branch, DTP, NCI, 2025)

System: 282377-053-R-J1-PDC tumor spheroids, viability
Test: Anticancer human tumor 282377-053-R-J1-PDC patient-derived colon adenocarcinoma cell line growth inhibition [TAK]
Conditions: spheroids with HUVEC and MSC; for IC50: curve of first compound; for viability, T/C: stronger effect = lower value
How it was run: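 Spheroids of 60% malignant cells, 25% HUVEC and 15% hMSC were exposed to targeted agents combined with TAK-243 or ipatasertib. Concentrations started at or near clinical Cmax (10 microM if unknown) and descended in half-log steps.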

[1] = second compound 0.3 µM, first compound 0.0316 µM
[2] = second compound 0.3 µM, first compound 0.1 µM
[3] = second compound 0.3 µM, first compound 0.316 µM
[4] = second compound 0.3 µM, first compound 1 µM
[5] = second compound 0.949 µM, first compound 0.0316 µM
[6] = second compound 0.949 µM, first compound 0.1 µM
[7] = second compound 0.949 µM, first compound 0.316 µM
[8] = second compound 0.949 µM, first compound 1 µM
[9] = second compound 3 µM, first compound 0.0316 µM
[10] = second compound 3 µM, first compound 0.1 µM
[11] = second compound 3 µM, first compound 0.316 µM
[12] = second compound 3 µM, first compound 1 µM
[13] = second compound 9.49 µM, first compound 0.0316 µM
[14] = second compound 9.49 µM, first compound 0.1 µM
[15] = second compound 9.49 µM, first compound 0.316 µM
[16] = second compound 9.49 µM, first compound 1 µM
[17] = second compound 30 µM, first compound 0.0316 µM
[18] = second compound 30 µM, first compound 0.1 µM
[19] = second compound 30 µM, first compound 0.316 µM
[20] = second compound 30 µM, first compound 1 µM
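Further: spheroids exposed to drugs for seven days before readout.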

| SMILES | IC50 (second compound 0.3 µM) [nM] | IC50 (second compound 0.949 µM) [nM] | IC50 (second compound 3 µM) [nM] | IC50 (second compound 9.49 µM) [nM] | IC50 (second compound 30 µM) [nM] | viability, T/C [1] [%] | viability, T/C [2] [%] | viability, T/C [3] [%] | viability, T/C [4] [%] | viability, T/C [5] [%] | viability, T/C [6] [%] | viability, T/C [7] [%] | viability, T/C [8] [%] | viability, T/C [9] [%] | viability, T/C [10] [%] | viability, T/C [11] [%] | viability, T/C [12] [%] | viability, T/C [13] [%] | viability, T/C [14] [%] | viability, T/C [15] [%] | also measured |
| --- | --- | --- | --- | --- | --- | --- | --- | --- | --- | --- | --- | --- | --- | --- | --- | --- | --- | --- | --- | --- | --- |
| COc1c(OCCCN2CCOCC2)ccc2c3n(c(=NC(=O)c4cnc(N)nc4)nc12)CCN3 + CC(C)NCC(C(=O)N1CCN(c2ncnc3c2C(C)CC3O)CC1)c1ccc(Cl)cc1 | > 1000 | 674 | 489 | 182 | 32.3 | 91.8 | 91.1 | 87.9 | 64.3 | 87.6 | 81.3 | 82.7 | 33.2 | 80.5 | 78.4 | 73.4 | 13.6 | 73.2 | 66.8 | 35.4 | viability, T/C (second compound 0.3 µM, first compound 0.00316 µM): 95%; viability, T/C (second compound 0.3 µM, first compound 0.01 µM): 96%; viability, T/C (second compound 0.949 µM, first compound 0.00316 µM): 94.9%; viability, T/C (second compound 0.949 µM, first compound 0.01 µM): 87.7%; viability, T/C (second compound 3 µM, first compound 0.00316 µM): 86.1%; viability, T/C (second compound 3 µM, first compound 0.01 µM): 88.3%; viability, T/C (second compound 9.49 µM, first compound 0.00316 µM): 82.3%; viability, T/C (second compound 9.49 µM, first compound 0.01 µM): 79.1%; viability, T/C [16]: 11.4%; viability, T/C (second compound 30 µM, first compound 0.00316 µM): 66.4%; viability, T/C (second compound 30 µM, first compound 0.01 µM): 65.8%; viability, T/C [17]: 48%; viability, T/C [18]: 29.7%; viability, T/C [19]: 8.22%; viability, T/C [20]: 4.24% |
| Cc1nc(NC(=O)N2CCCC2C(N)=O)sc1-c1ccnc(C(C)(C)C(F)(F)F)c1 (stereo not given) + CC(C)NCC(C(=O)N1CCN(c2ncnc3c2C(C)CC3O)CC1)c1ccc(Cl)cc1 | > 10000 | > 10000 | > 10000 | > 10000 | 5510 | 99.7 | 91.4 | 91.7 | 89.8 | 87.2 | 91.5 | 84 | 81 | 83.5 | 83.9 | 80 | 77.3 | 81.7 | 81 | 76.1 | viability, T/C (second compound 0.3 µM, first compound 3.16 µM): 79.8%; viability, T/C (second compound 0.3 µM, first compound 10 µM): 70.4%; viability, T/C (second compound 0.949 µM, first compound 3.16 µM): 79.1%; viability, T/C (second compound 0.949 µM, first compound 10 µM): 81.3%; viability, T/C (second compound 3 µM, first compound 3.16 µM): 76.3%; viability, T/C (second compound 3 µM, first compound 10 µM): 77.3%; viability, T/C [16]: 75.8%; viability, T/C (second compound 9.49 µM, first compound 3.16 µM): 69.6%; viability, T/C (second compound 9.49 µM, first compound 10 µM): 64%; viability, T/C [17]: 71.7%; viability, T/C [18]: 69.8%; viability, T/C [19]: 66.4%; viability, T/C [20]: 58%; viability, T/C (second compound 30 µM, first compound 3.16 µM): 56.1%; viability, T/C (second compound 30 µM, first compound 10 µM): 45.1% |
